Results from patent publication US4489084A, “[1-(2-Oxazolyl) or -(2-thiazolyl) hydrazino]alkyl nitriles” (Abbott Laboratories, priority 1983, dated 1984).
Structures can show the parent of a compound that is named as a salt.

Key:
[1] = tested on: dermal Arthus reaction (Type III hypersensitivity); experiment: reverse passive Arthus assay (Carter and Krause); type: in vivo, rats (male Sprague-Dawley); settings: 100 mg/kg, oral, 30 min before intradermal AntiB.S.A.; lesion after 4 hours; 4 rats per group
Method: Proc. 35, 774 (1976). Each compound was administered orally to a group of four animals. The reserve passive Arthus reaction test in rats is conducted as follows: Male Sprague-Dawley rats weighing approximately 130-160 g. are used, 4 rats per group. All animals are injected intravenously with 0.5 ml. 0.075% Bovine Serum Albumin (B.S.A.) +2% Evans Blue solution. Each rat then receives an oral dose of drug; one drug is administered per group. Thirty minutes subsequent to drug dosing, each animal is injected intradermally with 0.05 ml. 1.44% AntiB.S.A. into the dorsal skin. Four hours later the animals are sacrificed, the dorsal skin reflexed, and the lesion excised. Two perpendicular diameters of each lesion are measured. The average diameters of the lesions from the treated groups are compared with the average diameters from the control group to determine any drug effect. […] Proc. 35, 774 (1976)]. Each compound was administered orally to a group of four animals.

[2] = tested on: carrageenin pleurisy (accumulation of exudate volume and leukocytes); experiment: carrageenin pleurisy assay (modification of Vinegar et al.); type: in vivo; settings: Dose 100 (unit not given); for % Inhibition, Volume exudates: exudate volume; for % Inhibition, Cells: leukocyte accumulation
Excerpt: The anti-inflammatory activity of these compounds was established by using a modification of the carrageenin pleurisy assay described by Vinegar et al. Proc. Soc. Exp. Biol. Med. 143:711 (1973).

Structure (SMILES)	% Inhibition of lesion of dermal Arthus reaction [1]	% Inhibition, Volume exudates [2] [%]	% Inhibition, Cells [2] [%]
Cc1nc(N(N)CCC#N)oc1C.Cl [3-[1-(4,5-dimethyl-2-oxazolyl)-hydrazino]propanenitrile hydrochloride]	38%	–	–
N#CCCN(N)c1nc(-c2ccccc2)c(-c2ccccc2)o1 [3-[1-(4,5-diphenyl-2-oxazolylhydrazino)]propanenitrile hydrochloride]	40%	–	–
Cl.N#CCCN(N)c1ncco1 [3-[1-(2-Oxazolyl)hydrazino]propanenitrile hydrochloride]	42%	32	21
Cl.N#CCCN(N)c1nc(-c2ccccc2)co1 [3-[1-(4-Phenyl-2-oxazolyl)-hydrazino]propanenitrile hydrochloride]	59%	–	–
CCCCC1C(=O)N(c2ccccc2)N(c2ccccc2)C1=O [Phenylbutazone, reference compound]	Inactive	59	13
